Usually Cmax stands for the peak of the concentration-time curve.

Series [1] has as its system ovalbumin sensitised Brown Norway rat eosinophilia model. Put plainly: Ovalbumin sensitised Brown Norway rat eosinophilia model. The series is classed as in vivo. Particulars: single 30 μg intra-tracheal dose, suspension in saline, 30 min prior to ovalbumin challenge. The method, then:
Pharmacological activity in vivo was assessed in an ovalbumin sensitised Brown Norway rat eosinophilia model. This model is designed to mimic allergen induced lung eosinophilia, a major component of lung inflammation in asthma.

In series [2] the test system is rat model of thymus involution. Put plainly: Rat model of thymus involution. The series is classed as in vivo. Particulars: 3 daily IT doses of 100 μg.
Series [3] can be described thus: Pharmacokinetics after intra-tracheal dry powder dosing in the pig. The series is classed as in vivo. Particulars: for AUC (0-inf): compound (I) AUC calculated with IV plasma half-life. The method, then:
Serial blood samples were taken for up to 8 h following dosing.

The nature of series [4]: Pharmacokinetics after intravenous and oral dosing in rats. Particulars: rat, IV 0.1 mg/kg.

Regarding `CCC(=O)O[C@]1(C(=O)SCF)[C@H](C)C[C@H]2[C@@H]3C[C@H](F)C4=CC(=O)C=C[C@]4(C)[C@@]3(F)[C@@H](O)C[C@@]21C` [Fluticasone propionate, 6α, 9α-Difluoro-17α-(1-oxopropoxy)-11β-hydroxy-16α-methyl-3-oxo-androsta-1,4-diene-17β-carbothioic acid S-fluoromethyl ester, reference compound], the “inhibition of lung eosinophilia” value in series [1] is recorded as 41%. In series [2], the “reduction of thymus weight” value stood at 78%. Besides, the Cmax was found to be 0.277 ng/mL in series [3] (Pig 1, 1 mg intra-tracheal dry powder blend in lactose) and 0.218 ng/mL in series [3] (Pig 2, 1 mg intra-tracheal dry powder blend in lactose). Also, the “AUC (0-inf)” value in series [3] (Pig 1, 1 mg intra-tracheal dry powder) is 0.455 ng·h/mL; in series [3] (Pig 2, 1 mg intra-tracheal dry powder), 0.495 ng·h/mL. In series [3] (anaesthetised pigs, 1 mg intra-tracheal, LLOQ 10 pg/mL compound (I), 20 pg/mL fluticasone propionate), the “time after dosing up to which quantifiable in plasma” value is on record as “up to 8 hours”. For the same compound, the plasma clearance in series [4] came to 45.2 mL/min/kg.

The values above are taken from patent US20050130947A1, “Formulations for inhalation” (priority 2002, published 2005).
